# US20130266636A1, “METHODS FOR BLOCKING CELL PROLIFERATION AND TREATING DISEASES AND CONDITIONS RESPONSIVE TO CELL GROWTH INHIBITION” (THE REGENTS OF THE UNIVERSITY OF CALIFORNIA, priority 2010, published 2013)
# How the values were obtained:
# phospho-S338 CRAF = target: T1, phospho-S338 CRAF (Mus musculus, UniProt Q99N57); assay: Phospho-S338 CRAF staining in orthotopic R40P murine pancreatic cancer tissues; assay type: in vivo, mice; conditions: systemic KG5, 3 days
# T1 construct: immunofluorescent staining of phospho-S338 CRAF in orthotopic pancreatic cancer tissues untreated or systemically treated with KG5; from tissue; host or cells: orthotopic R40P murine pancreatic tumours in mice
# From the text: FIG. 5 illustrates the effect of KG5 on orthotopic R40P murine pancreatic tumor cells after three days, as further discussed in Example 1, below.
# FIG. 5 illustrates an immunofluorescent staining of phospho-S338 CRAF in orthotopic pancreatic cancer tissues untreated or systemically treated with KG5 for 3 days.
# [1] = system: MDA-MB-231 human breast carcinoma cells; assay: Cells in pro-metaphase in orthotopic breast tumor xenografts; assay type: in vivo, mice; conditions: systemic KG5 50 mg/Kg, after three days
# From the text: FIG. 34. CRAF is required for mitotic progression: (a) Cell cycle analysis of WT and CRAF−/− MEFs. Left graph, Cells in G2/M were quantified by flow cytometry. Right graph, Cells at pro-metaphase were quantified using confocal microscopy. Error bars represent s.d. (n=4); * two tailed p value=0.0079 (left graph) and p=0.0055 (right graph) using a Mann Whitney U test. (b) WT and CRAF−/− MEFs were synchronized at pro-metaphase with a thymidine-nocodazole block as described in these Methods, and subsequently released from the blockade and allowed to progress through mitosis. Quantification of cells in G2/M was performed by flow cytometry. Error bars represent s.d. (n=3). (c) Confocal microscopy images of WT and CRAF−/− cells progressing through mitosis at 0, 60 and 360 minutes after release from pro-metaphase blockade. Cells were stained for α-tubulin (in red) and DNA (TOPRO-3™ in blue). Scale bar, 10 μm. […] Cell cycle analysis and quantification of cells in G2/M was performed by flow cytometry. […] (e) Immunohistochemical staining of phospho-5338 CRAF and phospho-histone H3 (mitotic marker) in orthotopic breast and tumor xenografts untreated or treated systemically with KG5 (50 mg/Kg for 3 days Scale bar, 50 μm. […]. Circles indicate cells in pro-metaphase. Right, Quantification of cells in pro-metaphase. Error bars represent s.d. (n=12); * two tailed p value=0.006 using Student T test. […]
# [2] = system: human breast (MDA-MB-231) carcinoma cell line; assay: Cell viability assay in MDA-MB-231 cells; assay type: cell-based
# FAK or Src = conditions: cited from earlier work
smiles,measurement,setting,value
CSc1nc(N)cc(Oc2ccc(-c3nnc(Nc4cccc(C(F)(F)F)c4)[nH]3)cc2)n1 [KG5],phospho-S338 CRAF in orthotopic pancreatic cancer tissues,phospho-S338 CRAF,inhibits serine 338 phosphorylation of CRAF
same,cells at pro-metaphase in orthotopic breast tumor tissues,[1],accumulation of cells at pro-metaphase
same,cell viability,[2]; MDA-MB-231,decrease cell viability
same,EC50,[2]; MDA-MB-231 breast cancer cell viability assays,approach picomolar (pM) EC50s
same,integrin-mediated signaling to FAK or Src,FAK or Src,no effect
